Values after ≈ are worked out from the molar mass of the structure shown. Like-named read-outs stand apart in the source and are kept apart here.
Key:
P. falciparum D6 = assay: Antimalarial assay (plasmodial LDH activity), D6 strain; assay type: cell-based, Plasmodium falciparum; settings: for IC50: Plasmodium falciparum, read-out: IC50 antiplasmodial activity, P. falciparum D6; for SI (Selectivity index), P. falciparum D6: VERO vs P. falciparum D6
Method: (§1) The assay is based on the measurement of plasmodial LDH activity. The test was conducted using a suspension of red blood cells infected with D6 or W2 strains of P. falciparum (200 µL, with 2% parasitemia, and 2% hematocrit in RPMI 1640 medium supplemented with 10% human serum and 60 µg/mL Amikacin) into the wells of a 96-well plate containing 10 µL of test samples diluted in medium at various concentrations. The plate was put in a modular incubation chamber (Billups-Rothenberg, San Diego, CA, USA); flushed with a gas mixture consisting of 90% N2, 5% O2, and 5% CO2; and incubated for 72 h at 37 °C. Parasitic LDH activity was measured by utilizing Malstat reagent (Flow Inc., Portland, OR, USA). Briefly, 20 µL of the incubation mixture was combined with 100 µL of the Malstat reagent and incubated at room temperature for 30 min. Then, twenty microliters of a 1:1 mixture of NBT/PES (Sigma, St. Louis, MO, USA) was added and the plate was further incubated in the dark for 1 h. The reaction was then stopped by the addition of 100 µL of a 5% acetic acid solution. The plate was read at 650 nm using the EL-340 Biokinetics Reader (Bio-Tek Instruments, Winooski, VT, USA). The dose–response curves were used to calculate IC50 values. […] Dimethyl sulfoxide (0.25%) was used as vehicle control.

P. falciparum W2 = assay: Antimalarial assay (plasmodial LDH activity), W2 strain; assay type: cell-based, Plasmodium falciparum; settings: for IC50: Plasmodium falciparum, read-out: IC50 antiplasmodial activity, P. falciparum W2; for SI (Selectivity index), P. falciparum W2: VERO vs P. falciparum W2
Method: as §1

VERO = assay: Cytotoxicity toward mammalian kidney fibroblasts (Vero); assay type: cell-based; settings: Chlorocebus sabaeus, VERO cells
C. neoformans = assay: Antimicrobial susceptibility testing (modified CLSI), C. neoformans; assay type: cell-based, Cryptococcus neoformans
Source text: (§2) The microorganism strains that were employed to test the antimicrobial activity were Candida albicans Pinh, C. neoformans Pinh, Aspergillus fumigatus Pinh, methicillin-resistant Staphylococcus aureus Pinh (MRS), E. coli Pinh, Pseudomonas aeruginosa Pinh, Klebsiella pneumoniae Pinh, and Vancomycin-resistant Enterococci (VRE) Pinh. The strains were bought from the American Type Culture Collection. A modified version of the CLSI methodology was used for the susceptibility testing. A final DMSO concentration of 1% was maintained in the assay by serially diluting all samples in 20% DMSO/saline and transferring them in duplicate to 384 well flat-bottom microplates. Following the McFarland standard, inocula were created by adjusting the OD630 of microbe suspensions in incubation broth. C. albicans was cultured in RPMI 1640 broth (2% dextrose, 0.03% glutamine, and MOPS at pH 6); C. neoformans in Sabouraud Dextrose; MRS, VRE, E. coli, K. pneumoniae, and P. aeruginosa in cation-adjusted Mueller–Hinton at pH 7.3, and A. fumigatus in RPMI 1640 broth (2% dextrose, 0.03% glutamine, buffered with 0.165 M MOPS at pH 7). Five percent Alamar Blue was added in A. fumigatus, VRE, and MRS. In every assay, there were drug controls for bacteria and fungi. […] A Bio-Tek plate reader was used to measure the optical density (530 nm) or fluorescence (544ex/590em) before and after incubation.

[1] = test system: methicillin-resistant Staphylococcus aureus (MRS); assay: Antimicrobial susceptibility testing (modified CLSI), MRS; assay type: cell-based
Source text: as §2

Klebsiella pneumoniae = assay: Antimicrobial susceptibility testing (modified CLSI), K. pneumoniae; assay type: cell-based
Source text: as §2

Pseudomonas aeruginosa = assay: Antimicrobial susceptibility testing (modified CLSI), P. aeruginosa; assay type: cell-based
Source text: as §2

[2] = test system: Candida albicans, C. neoformans, Aspergillus fumigatus, MRS, E. coli, Pseudomonas aeruginosa, Klebsiella pneumoniae, VRE; assay: Antimicrobial panel (all assayed microorganisms); assay type: cell-based; settings: at the tested concentration
Source text: as §2

Row | SMILES | IC50 (VERO) [µg/mL] | antimicrobial activity (in words) [2] | antiplasmodial activity against P. falciparum D6 (in words) (P. falciparum D6; D6 strain) | IC50 (P. falciparum D6; D6 strain, 72 h) [µg/mL] | SI (Selectivity index), P. falciparum D6 (P. falciparum D6) | IC50 (P. falciparum W2; W2 strain, 72 h) [µg/mL] | SI (Selectivity index), P. falciparum W2 (P. falciparum W2) | antiplasmodial activity against P. falciparum W2 (in words) (P. falciparum W2; W2 strain) | further results
1 | CCN(CC)CCCC(C)Nc1ccnc2cc(Cl)ccc12 (stereo not shown) [Chloroquine, chloroquine, reference compound] | > 0.24 | – | – | – | – | – | – | – | IC50 (P. falciparum D6; D6, 72 h): 0.026 µg/mL (≈ 0.0813 µM); IC50 (P. falciparum W2; W2, 72 h): 0.14 µg/mL (≈ 0.438 µM)
2 | OC(Cn1cncn1)(Cn1cncn1)c1ccc(F)cc1F [Fluconazole, fluconazole] | – | – | – | – | – | – | – | – | IC50 antimicrobial activity, C. neoformans (C. neoformans): 4.684 µg/mL (≈ 15.3 µM); IC50 (C. neoformans; Cryptococcus neoformans): 4.68 µg/mL (≈ 15.3 µM)
3 | C[C@@H](O)[C@H]1C(=O)N2C(C(=O)O)=C(S[C@@H]3CN[C@H](C(=O)N(C)C)C3)[C@H](C)[C@H]12 [Meropenem, meropenem] | – | – | – | – | – | – | – | – | IC50 [1]: 46.9 µg/mL (≈ 122 µM); IC50 antimicrobial activity, K. pneumoniae (Klebsiella pneumoniae): 9.143 µg/mL (≈ 23.8 µM); IC50 antimicrobial activity, K. pneumoniae (Klebsiella pneumoniae; listed as meropenem): 43.94 µg/mL (≈ 115 µM); IC50 (Pseudomonas aeruginosa): 28.7 µg/mL (≈ 74.8 µM)
4 | COC(=O)c1cc(O)c(O)c(O)c1 [compound 3, methyl gallate] | > 4.76 | no exhibition of antimicrobial activity | remarkable antiplasmodial activity | 1.57 (≈ 8.53 µM) | >3 | 0.61 (≈ 3.31 µM) | >7.8 | remarkable antiplasmodial activity | –
5 | C[C@@]12C[C@@]3(O)O[C@@H](O1)[C@]1(COC(=O)c4ccccc4)[C@@H]3C[C@]12O[C@@H]1O[C@H](COC(=O)c2cc(O)c(O)c(O)c2)[C@@H](O)[C@H](O)[C@H]1O [compound 5, galloyl paeoniflorin] | > 4.76 | no exhibition of antimicrobial activity | remarkable antiplasmodial activity | 4.72 (≈ 7.46 µM) | >1 | 2.91 (≈ 4.6 µM) | >1.6 | remarkable antiplasmodial activity | –
